In PubChem BioAssay (NCI):
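In this assay, cells in 96-well plates receive the compound at five concentrations for 48 hours. Endpoints are linearly interpolated between the surrounding concentrations. At the TGI there is no net growth.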

Legend:
Assay in all cases: NCI-60 cell line screen, 48 h
OVCAR-4 ovarian = test system: OVCAR-4 ovarian
T-47D breast = test system: T-47D breast
ACHN renal = test system: ACHN renal
SN12C renal = test system: SN12C renal
NCI-H522 lung = test system: NCI-H522 lung
MDA-MB-231 breast = test system: MDA-MB-231 breast
U251 CNS = test system: U251 CNS
NCI-H226 lung = test system: NCI-H226 lung
HOP-62 NSCLC = test system: HOP-62 NSCLC
HS 578T breast = test system: HS 578T breast
OVCAR-5 ovarian = test system: OVCAR-5 ovarian
HCC-2998 colon = test system: HCC-2998 colon
SF-295 CNS = test system: SF-295 CNS
A549 NSCLC = test system: A549 NSCLC
UACC-62 melanoma = test system: UACC-62 melanoma
K-562 leukemia = test system: K-562 leukemia
BT-549 breast = test system: BT-549 breast
LOX IMVI melanoma = test system: LOX IMVI melanoma
SR leukemia = test system: SR leukemia
UO-31 renal = test system: UO-31 renal
HCT-116 colon = test system: HCT-116 colon
MOLT-4 leukemia = test system: MOLT-4 leukemia
HOP-92 NSCLC = test system: HOP-92 NSCLC
CCRF-CEM leukemia = test system: CCRF-CEM leukemia
NCI-H23 lung = test system: NCI-H23 lung
DU-145 prostate = test system: DU-145 prostate
OVCAR-8 ovarian = test system: OVCAR-8 ovarian
HCT-15 colon = test system: HCT-15 colon
SF-268 CNS = test system: SF-268 CNS
MALME-3M melanoma = test system: MALME-3M melanoma
COLO 205 colon = test system: COLO 205 colon
RXF 393 renal = test system: RXF 393 renal
OVCAR-3 ovarian = test system: OVCAR-3 ovarian
SK-MEL-28 melanoma = test system: SK-MEL-28 melanoma
SK-MEL-5 melanoma = test system: SK-MEL-5 melanoma
IGROV1 ovarian = test system: IGROV1 ovarian
SF-539 CNS = test system: SF-539 CNS
HT29 colon = test system: HT29 colon
RPMI-8226 leukemia = test system: RPMI-8226 leukemia
PC-3 prostate = test system: PC-3 prostate
CAKI-1 renal = test system: CAKI-1 renal
MDA-MB-435 = test system: MDA-MB-435
MDA-N = test system: MDA-N
786-0 renal = test system: 786-0 renal
MCF7 breast = test system: MCF7 breast
SNB-19 CNS = test system: SNB-19 CNS
SNB-75 CNS = test system: SNB-75 CNS
TK-10 renal = test system: TK-10 renal
NCI/ADR-RES ovarian = test system: NCI/ADR-RES ovarian
KM12 colon = test system: KM12 colon
EKVX NSCLC = test system: EKVX NSCLC
SK-MEL-2 melanoma = test system: SK-MEL-2 melanoma
SK-OV-3 ovarian = test system: SK-OV-3 ovarian
HL-60(TB) leukemia = test system: HL-60(TB) leukemia
A498 renal = test system: A498 renal
SW-620 colon = test system: SW-620 colon
NCI-H460 lung = test system: NCI-H460 lung
M14 melanoma = test system: M14 melanoma
UACC-257 melanoma = test system: UACC-257 melanoma

SMILES: N=N/C(=C\c1c(O)[nH]c2ccccc12)c1ccccc1
- TGI (OVCAR-4 ovarian): > 100 µM
- TGI (T-47D breast): > 100 µM
- TGI (ACHN renal): > 100 µM
- TGI (SN12C renal): > 94.7 µM
- TGI (NCI-H522 lung): 86.7 µM
- TGI (MDA-MB-231 breast): > 76.5 µM
- TGI (U251 CNS): > 83.9 µM
- TGI (NCI-H226 lung): 99.1 µM
- TGI (HOP-62 NSCLC): 99.8 µM
- TGI (HS 578T breast): 44.4 µM
- TGI (OVCAR-5 ovarian): > 100 µM
- TGI (HCC-2998 colon): 63 µM
- TGI (SF-295 CNS): 66 µM
- TGI (A549 NSCLC): > 100 µM
- TGI (UACC-62 melanoma): > 100 µM
- TGI (K-562 leukemia): > 100 µM
- TGI (BT-549 breast): 62.3 µM
- TGI (LOX IMVI melanoma): > 70.2 µM
- TGI (SR leukemia): 97.5 µM
- TGI (UO-31 renal): > 100 µM
- TGI (HCT-116 colon): > 59.3 µM
- TGI (MOLT-4 leukemia): > 100 µM
- TGI (HOP-92 NSCLC): > 100 µM
- TGI (CCRF-CEM leukemia): 25.2 µM
- TGI (NCI-H23 lung): > 87.8 µM
- TGI (DU-145 prostate): > 100 µM
- TGI (OVCAR-8 ovarian): > 57.5 µM
- TGI (HCT-15 colon): > 66.4 µM
- TGI (SF-268 CNS): > 100 µM
- TGI (MALME-3M melanoma): > 78 µM
- TGI (COLO 205 colon): 54.6 µM
- TGI (RXF 393 renal): 62.6 µM
- TGI (OVCAR-3 ovarian): 44.2 µM
- TGI (SK-MEL-28 melanoma): > 100 µM
- TGI (SK-MEL-5 melanoma): > 100 µM
- TGI (IGROV1 ovarian): > 100 µM
- TGI (SF-539 CNS): 37.9 µM
- TGI (HT29 colon): 44.9 µM
- TGI (RPMI-8226 leukemia): > 100 µM
- TGI (PC-3 prostate): > 70.7 µM
- TGI (CAKI-1 renal): > 100 µM
- TGI (MDA-MB-435): 20.3 µM
- TGI (MDA-N): 13.7 µM
- TGI (786-0 renal): > 77 µM
- TGI (MCF7 breast): > 100 µM
- TGI (SNB-19 CNS): > 92.9 µM
- TGI (SNB-75 CNS): 63.8 µM
- TGI (TK-10 renal): > 100 µM
- TGI (NCI/ADR-RES ovarian): > 57.2 µM
- TGI (KM12 colon): > 89.2 µM
- TGI (EKVX NSCLC): > 92 µM
- TGI (SK-MEL-2 melanoma): > 100 µM
- TGI (SK-OV-3 ovarian): > 90.2 µM
- TGI (HL-60(TB) leukemia): 17.5 µM
- TGI (A498 renal): 91.6 µM
- TGI (SW-620 colon): > 100 µM
- TGI (NCI-H460 lung): > 100 µM
- TGI (M14 melanoma): > 65.9 µM
- TGI (UACC-257 melanoma): > 100 µM

SMILES: Cc1ccc(-c2n[nH]c(=O)n2NC(=O)c2ccccc2C(=O)O)cc1
- TGI (T-47D breast): > 100 µM
- TGI (ACHN renal): > 100 µM
- TGI (SN12C renal): > 100 µM
- TGI (NCI-H522 lung): > 100 µM
- TGI (MDA-MB-231 breast): > 100 µM
- TGI (U251 CNS): > 100 µM
- TGI (NCI-H226 lung): > 100 µM
- TGI (HOP-62 NSCLC): > 100 µM
- TGI (HS 578T breast): > 100 µM
- TGI (HCC-2998 colon): > 100 µM
- TGI (SF-295 CNS): > 100 µM
- TGI (A549 NSCLC): > 100 µM
- TGI (UACC-62 melanoma): > 100 µM
- TGI (K-562 leukemia): > 100 µM
- TGI (BT-549 breast): > 100 µM
- TGI (LOX IMVI melanoma): > 100 µM
- TGI (SR leukemia): > 100 µM
- TGI (UO-31 renal): > 100 µM
- TGI (HCT-116 colon): > 100 µM
- TGI (MOLT-4 leukemia): > 100 µM
- TGI (HOP-92 NSCLC): > 100 µM
- TGI (NCI-H23 lung): > 100 µM
- TGI (DU-145 prostate): > 100 µM
- TGI (OVCAR-8 ovarian): > 100 µM
- TGI (HCT-15 colon): > 100 µM
- TGI (SF-268 CNS): > 100 µM
- TGI (MALME-3M melanoma): > 100 µM
- TGI (RXF 393 renal): > 100 µM
- TGI (OVCAR-3 ovarian): > 100 µM
- TGI (SK-MEL-28 melanoma): > 100 µM
- TGI (SK-MEL-5 melanoma): > 100 µM
- TGI (IGROV1 ovarian): > 100 µM
- TGI (SF-539 CNS): > 100 µM
- TGI (HT29 colon): > 100 µM
- TGI (RPMI-8226 leukemia): > 100 µM
- TGI (PC-3 prostate): > 100 µM
- TGI (CAKI-1 renal): > 100 µM
- TGI (MDA-MB-435): > 100 µM
- TGI (MDA-N): > 100 µM
- TGI (786-0 renal): > 100 µM
- TGI (MCF7 breast): > 100 µM
- TGI (SNB-19 CNS): > 100 µM
- TGI (SNB-75 CNS): > 100 µM
- TGI (TK-10 renal): > 100 µM
- TGI (NCI/ADR-RES ovarian): > 100 µM
- TGI (KM12 colon): > 100 µM
- TGI (SK-MEL-2 melanoma): > 100 µM
- TGI (HL-60(TB) leukemia): > 100 µM
- TGI (SW-620 colon): > 100 µM
- TGI (NCI-H460 lung): > 100 µM
- TGI (M14 melanoma): > 100 µM
- TGI (UACC-257 melanoma): > 100 µM
